The text below walks through data of ChEMBL document CHEMBL2073744, “The multidrug-resistant phenotype associated with overexpression of the new ABC half-transporter, MXR (ABCG2)” (J Cell Sci, 2000).

Data set [1] deals with T1, Broad substrate specificity ATP-binding cassette transporter ABCG2 (Homo sapiens, UniProt Q9UNQ0).
T1 sequence (Q9UNQ0 whole entry): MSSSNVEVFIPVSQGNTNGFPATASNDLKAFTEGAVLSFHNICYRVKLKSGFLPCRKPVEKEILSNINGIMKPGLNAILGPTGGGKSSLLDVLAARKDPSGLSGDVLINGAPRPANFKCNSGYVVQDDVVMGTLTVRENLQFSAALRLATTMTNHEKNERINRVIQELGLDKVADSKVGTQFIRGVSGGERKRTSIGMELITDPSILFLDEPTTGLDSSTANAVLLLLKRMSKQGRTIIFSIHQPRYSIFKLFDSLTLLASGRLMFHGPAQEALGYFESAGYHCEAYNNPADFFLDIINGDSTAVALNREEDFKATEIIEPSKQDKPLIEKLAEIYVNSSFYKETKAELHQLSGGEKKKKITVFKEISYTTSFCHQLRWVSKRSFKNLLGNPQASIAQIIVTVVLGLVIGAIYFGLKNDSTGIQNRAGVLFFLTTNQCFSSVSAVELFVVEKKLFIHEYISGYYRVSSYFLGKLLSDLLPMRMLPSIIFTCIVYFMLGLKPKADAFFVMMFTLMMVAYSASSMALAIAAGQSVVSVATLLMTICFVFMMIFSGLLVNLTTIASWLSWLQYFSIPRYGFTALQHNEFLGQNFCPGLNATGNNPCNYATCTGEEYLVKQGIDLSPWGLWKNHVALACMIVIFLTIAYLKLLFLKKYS
The data set can be described thus: TP_TRANSPORTER: intracellular accumulation in S1 and S1-M1-80 cells. The data set is classed as functional, cell-based. Particulars: s1;s1-m1-80.

The target in data set [2] is T1, Broad substrate specificity ATP-binding cassette transporter ABCG2. The data set is described as follows: TP_TRANSPORTER: intracellular accumulation in MCF-7 and MCF-7 AdVp3000 cells. The data set is classed as functional, cell-based.

For the compound `O=C1c2c(O)ccc(O)c2C(=O)c2c(NCCNCCO)ccc(NCCNCCO)c21` [MITOXANTRONE], the Activity entry in data set [1] and in data set [2] was “substrate [+]” in each case.
